Test results as given in ChEMBL document CHEMBL1133236, “Synthesis and antifungal activities of 5/6-arylamino-4,7-dioxobenzothiazoles” (Bioorg Med Chem Lett, 2000).
Values after ≈ are worked out from the molar mass of the structure shown.

Tests used:
Aspergillus niger = test: Antifungal activity against Aspergillus niger KCTC 1231; type: functional
Pichia kudriavzevii = test: Antifungal activity against Candida krusei ATCC 749; type: functional
Candida albicans = test: Antifungal activity against Candida albicans ATCC 10231; type: functional
HepG2 = test: In vitro cytotoxicity against HepG2 cells (Hepatocarcinoma from ATCC) by MTT assay; type: functional, cell-based, Homo sapiens
Candida tropicalis = test: Antifungal activity against Candida tropicalis ATCC 28775; type: functional
[1] = Homo sapiens, HepG2, read-out: IC50

Compound | MIC (Aspergillus niger) [µg/mL] | MIC (Pichia kudriavzevii) [µg/mL] | MIC (Candida albicans) [µg/mL] | IC50 (HepG2; [1]) [µg/mL] | MIC (Candida tropicalis) [µg/mL] | IC50 (HepG2; hepg2) [µg/mL]
O=C1C=C(Nc2ccc(F)cc2)C(=O)c2scnc21 | 3.2 (≈ 11.7 µM) | 3.2 (≈ 11.7 µM) | 12.5 (≈ 45.6 µM) | 17.9 (≈ 65.3 µM) | 6.3 (≈ 23 µM) | –
Cc1nc2c(s1)C(=O)C=C(Nc1cccc(Br)c1)C2=O | 12.5 (≈ 35.8 µM) | 6.3 (≈ 18 µM) | 12.5 (≈ 35.8 µM) | 15 (≈ 43 µM) | 0.8 (≈ 2.29 µM) | –
COC1=CC(=O)c2sc(C)nc2C1=O | 12.5 (≈ 59.7 µM) | 50 (≈ 239 µM) | 25 (≈ 119 µM) | – | 25 (≈ 119 µM) | –
O=C1C=C(Nc2ccc(OC(F)(F)F)cc2)C(=O)c2scnc21 | 3.2 (≈ 9.4 µM) | 3.2 (≈ 9.4 µM) | 12.5 (≈ 36.7 µM) | > 100 | 12.5 (≈ 36.7 µM) | –
Cc1ccc(NC2=CC(=O)c3sc(C)nc3C2=O)cc1 | 12.5 (≈ 44 µM) | 1.6 (≈ 5.63 µM) | 6.3 (≈ 22.2 µM) | 1.2 (≈ 4.22 µM) | 1.6 (≈ 5.63 µM) | –
COC1=CC(=O)c2ncsc2C1=O | 25 (≈ 128 µM) | 12.5 (≈ 64 µM) | 50 (≈ 256 µM) | – | 25 (≈ 128 µM) | –
Cc1nc2c(s1)C(=O)C=C(Nc1ccccc1)C2=O | 12.5 (≈ 46.2 µM) | 0.4 (≈ 1.48 µM) | 6.3 (≈ 23.3 µM) | 1.5 (≈ 5.55 µM) | 1.6 (≈ 5.92 µM) | –
Cc1nc2c(s1)C(=O)C=C(Nc1ccc(Cl)cc1)C2=O | 6.3 (≈ 20.7 µM) | 25 (≈ 82 µM) | 12.5 (≈ 41 µM) | 3.4 (≈ 11.2 µM) | 25 (≈ 82 µM) | –
Cc1nc2c(s1)C(=O)C=C(Nc1ccc(F)cc1)C2=O | 3.2 (≈ 11.1 µM) | 3.2 (≈ 11.1 µM) | 3.2 (≈ 11.1 µM) | 1.6 (≈ 5.55 µM) | 6.3 (≈ 21.9 µM) | –
CCOc1ccc(NC2=CC(=O)c3sc(C)nc3C2=O)cc1 | 1.6 (≈ 5.09 µM) | 3.2 (≈ 10.2 µM) | 3.2 (≈ 10.2 µM) | 4.9 (≈ 15.6 µM) | 6.3 (≈ 20 µM) | –
Cc1nc2c(s1)C(=O)C=C(Nc1cccc(Cl)c1)C2=O | 12.5 (≈ 41 µM) | 6.3 (≈ 20.7 µM) | 12.5 (≈ 41 µM) | 5.7 (≈ 18.7 µM) | 6.3 (≈ 20.7 µM) | –
Cc1nc2c(s1)C(=O)C=C(Nc1ccc(C)c(C)c1)C2=O | 12.5 (≈ 41.9 µM) | 3.2 (≈ 10.7 µM) | 12.5 (≈ 41.9 µM) | 4.8 (≈ 16.1 µM) | 0.4 (≈ 1.34 µM) | –
O=C1C=C(Nc2ccc(Cl)cc2)C(=O)c2scnc21 | 12.5 (≈ 43 µM) | 25 (≈ 86 µM) | 12.5 (≈ 43 µM) | 16.4 (≈ 56.4 µM) | 12.5 (≈ 43 µM) | –
O=C1C=C(Nc2ccccc2)C(=O)c2scnc21 | 3.2 (≈ 12.5 µM) | 6.3 (≈ 24.6 µM) | 12.5 (≈ 48.8 µM) | 14.7 (≈ 57.4 µM) | 6.3 (≈ 24.6 µM) | –
CCOc1ccc(NC2=CC(=O)c3ncsc3C2=O)cc1 | 3.2 (≈ 10.7 µM) | 6.3 (≈ 21 µM) | 12.5 (≈ 41.6 µM) | 23.6 (≈ 78.6 µM) | 12.5 (≈ 41.6 µM) | –
O=C1C=C(Nc2cccc(F)c2)C(=O)c2scnc21 | 1.6 (≈ 5.83 µM) | 3.2 (≈ 11.7 µM) | 12.5 (≈ 45.6 µM) | > 100 | 12.5 (≈ 45.6 µM) | –
CCCCCCc1ccc(NC2=CC(=O)c3sc(C)nc3C2=O)cc1 | 12.5 (≈ 35.3 µM) | 12.5 (≈ 35.3 µM) | 12.5 (≈ 35.3 µM) | 22 (≈ 62.1 µM) | 6.3 (≈ 17.8 µM) | –
Cc1nc2c(s1)C(=O)C=C(Nc1ccc(OC(F)(F)F)cc1)C2=O | 6.3 (≈ 17.8 µM) | 25 (≈ 70.6 µM) | 12.5 (≈ 35.3 µM) | > 100 | 0.8 (≈ 2.26 µM) | –
Cc1nc2c(s1)C(=O)C=C(Nc1ccc(C(F)(F)F)cc1)C2=O | 6.3 (≈ 18.6 µM) | 3.2 (≈ 9.46 µM) | 12.5 (≈ 36.9 µM) | > 100 | 12.5 (≈ 36.9 µM) | –
Nc1nc(=O)[nH]cc1F [FLUCYTOSINE] | 1.6 (≈ 12.4 µM) | 3.2 (≈ 24.8 µM) | 3.2 (≈ 24.8 µM) | – | 50 (≈ 387 µM) | –
CISPLATIN | – | – | – | – | – | 0.33
